The source of these data is patent US11702404B2, “GLP-1R modulating compounds” (priority 2019, dated 2023).

Each structure is given as a SMILES string.

The nature of series [1]: Microsomal stability, human liver microsomes (predicted hepatic clearance). Conditions: predicted from in vitro microsomal stability data.
The next series deals with GLP-1R (Homo sapiens, UniProt P43220). Description: GLP-1R activation: cAMP increase in CHO cells stably expressing GLP-1R. Type of series: cell-based. Conditions: cAMP increase, CHO cells stably expressing GLP-1R, 10 point dose response, 30 minutes incubation; read-out: EC50.
Sequence of GLP-1R (P43220 24-463): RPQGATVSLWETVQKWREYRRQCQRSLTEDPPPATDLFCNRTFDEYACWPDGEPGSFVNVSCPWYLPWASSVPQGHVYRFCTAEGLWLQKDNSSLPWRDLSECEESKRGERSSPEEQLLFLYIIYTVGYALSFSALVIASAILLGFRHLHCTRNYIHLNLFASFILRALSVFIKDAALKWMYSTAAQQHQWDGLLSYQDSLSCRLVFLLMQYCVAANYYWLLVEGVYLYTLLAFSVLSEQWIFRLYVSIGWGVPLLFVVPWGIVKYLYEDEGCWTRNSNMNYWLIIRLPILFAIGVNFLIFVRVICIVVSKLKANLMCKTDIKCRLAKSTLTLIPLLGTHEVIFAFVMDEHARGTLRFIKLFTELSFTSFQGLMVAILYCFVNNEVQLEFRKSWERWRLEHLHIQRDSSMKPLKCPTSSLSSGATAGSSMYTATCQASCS

As a reminder, the EC50 is the concentration giving half of the maximal effect. In the case of `CN1C[C@@](C)(Cn2c(Cc3cc(F)c(-c4cccc(OCc5ccc(C#N)cc5F)n4)cc3F)nc3ccc(C(=O)O)cc32)C1=O` (racemic) [Example 272, 2-(4-(6-((4-cyano-2-fluorobenzyl)oxy)pyridin-2-yl)-2,5-difluorobenzyl)-1-((1,3-dimethyl-2-oxoazetidin-3-yl)methyl)-1H-benzo[d]imidazole-6-carboxylic acid], the “Predicted Hepatic Clearance (Pred. Cl.)” value in series [1] was 9.67 mL/min/kg. Further, at GLP-1R, the EC50 was determined as 1.66 nM.

As for `CC(C#N)Cn1c(Cc2cc(F)c(-c3cccc(OCc4ccc(C#N)cc4F)n3)cc2F)nc2ccc(C(=O)O)cc21` (racemic) [Example 306, 2-(4-(6-((4-cyano-2-fluorobenzyl)oxy)pyridin-2-yl)-2,5-difluorobenzyl)-1-(2-cyanopropyl)-1H-benzo[d]imidazole-6-carboxylic acid], in series [1], the “Predicted Hepatic Clearance (Pred. Cl.)” value was 6 mL/min/kg. In addition, at GLP-1R, the EC50 is 1.86 nM.

For the molecule `COCCn1c([C@@H](C)c2ccc(-c3cccc(OCc4ccc(C#N)cc4F)n3)cc2)nc2ccc(C(=O)O)cc21` (racemic) [Example 447, 2-(1-(4-(6-((4-cyano-2-fluorobenzyl)oxy)pyridin-2-yl)phenyl)ethyl)-1-(2-methoxyethyl)-1H-benzo[d]imidazole-6-carboxylic acid], the “Predicted Hepatic Clearance (Pred. Cl.)” value in series [1] was 5 mL/min/kg. At GLP-1R, the EC50 came out at 1100 nM.

On to `N#Cc1ccc(COc2cccc(-c3ccc(Cc4nc5ccc(C(=O)O)cc5n4C[C@H]4CCS4(=O)=O)cc3)n2)c(F)c1` (racemic) [Example 475, 2-(4-(6-((4-cyano-2-fluorobenzyl)oxy)pyridin-2-yl)benzyl)-1-((1,1-dioxidothietan-2-yl)methyl)-1H-benzo[d]imidazole-6-carboxylic acid], for which the “Predicted Hepatic Clearance (Pred. Cl.)” value in series [1] was 2 mL/min/kg. Moreover, on GLP-1R, the EC50 amounted to 325 nM.

As to `C[C@@]1(Cn2c(Cc3cc(F)c(-c4cccc(OCc5ccc(C#N)cc5F)n4)cc3F)nc3ccc(C(=O)O)cc32)CCCO1` (racemic) [Example 548, 2-(4-(6-((4-cyano-2-fluorobenzyl)oxy)pyridin-2-yl)-2,5-difluorobenzyl)-1-((2-methyltetrahydrofuran-2-yl)methyl)-1H-benzo[d]imidazole-carboxylic acid], in series [1], the “Predicted Hepatic Clearance (Pred. Cl.)” value was 7.5 mL/min/kg. The EC50 on GLP-1R amounted to 9.01 nM.

`CC1(C)CC[C@@H](Cn2c(Cc3cc(F)c(-c4cccc(OCc5ccc(C#N)cc5F)n4)cc3F)nc3ccc(C(=O)O)cc32)O1` (racemic) [Example 549, 2-(4-(6-((4-cyano-2-fluorobenzyl)oxy)pyridin-2-yl)-2,5-difluorobenzyl)-1-((5,5-dimethyltetrahydrofuran-2-yl)methyl)-1H-benzo[d]imidazole-6-carboxylic acid]: the “Predicted Hepatic Clearance (Pred. Cl.)” value in series [1] is 12 mL/min/kg. Further, the EC50 on GLP-1R was determined as 45.5 nM.

In the case of `N#Cc1ccc(COc2cccc(-c3cc(F)c(Cc4nc5ccc(C(=O)O)cc5n4C[C@@H]4CC(F)(F)CO4)cc3F)n2)c(F)c1` (racemic) [Example 573, 2-(4-(6-((4-cyano-2-fluorobenzyl)oxy)pyridin-2-yl)-2,5-difluorobenzyl)-1-((4,4-difluorotetrahydrofuran-2-yl)methyl)-1H-benzo[d]imidazole-6-carboxylic acid], the “Predicted Hepatic Clearance (Pred. Cl.)” value in series [1] was 6.5 mL/min/kg. For the same molecule, at GLP-1R, the EC50 is 0.89 nM.

For the molecule `COCCn1c(Cc2ccc(-c3cccc(OCc4ccc(C#N)cc4F)n3)cc2F)nc2ccc(C(O)CO)cc21` (racemic) [Example 582], the “Predicted Hepatic Clearance (Pred. Cl.)” value in series [1] was 15.2 mL/min/kg. Moreover, the EC50 on GLP-1R was determined as 3460 nM.

Take `COCCn1c(Cc2ccc(-c3nc(OCc4ccc(C#N)cc4F)ccc3C)cc2)nc2ccc(C(=O)O)cc21` (single isomer, unassigned) [Example 23, 2-(4-(6-((4-cyano-2-fluorobenzyl)oxy)-3-methylpyridin-2-yl)benzyl)-1-(2-methoxyethyl)-1H-benzo[d]imidazole-6-carboxylic acid]: the “Predicted Hepatic Clearance (Pred. Cl.)” value in series [1] is 13.8 mL/min/kg. For the same molecule, the EC50 on GLP-1R was found to be 1100 nM.

Turning to `COCCn1c(Cc2ccc(-c3cc(C#Cc4ccccc4)cc(OCc4ccc(C#N)cc4F)n3)cc2F)nc2ccc(C(=O)O)cc21` [Example 100, 2-(4-(6-((4-cyano-2-fluorobenzyl)oxy)-4-(phenylethynyl)pyridin-2-yl)-2-fluorobenzyl)-1-(2-methoxyethyl)-1H-benzo[d]imidazole-6-carboxylic acid], in series [1], the “Predicted Hepatic Clearance (Pred. Cl.)” value was less than 1.83 mL/min/kg.

On to `COCCn1c(Cc2ccc(-c3cccc(OCc4ccc(C#N)cc4F)n3)cc2-c2cccnc2)nc2ccc(C(=O)O)cc21` [Example 185, 2-(4-(6-((4-cyano-2-fluorobenzyl)oxy)pyridin-2-yl)-2-(pyridin-3-yl)benzyl)-1-(2-methoxyethyl)-1H-benzo[d]imidazole-6-carboxylic acid], for which the “Predicted Hepatic Clearance (Pred. Cl.)” value in series [1] is 12 mL/min/kg.

As to `COCCn1c(Cc2c(F)cc(-c3cnccc3OCc3ccc(C#N)cc3F)cc2F)nc2ccc(C(=O)O)cc21` [Example 191, 2-(4-(4-((4-cyano-2-fluorobenzyl)oxy)pyridin-3-yl)-2,6-difluorobenzyl)-1-(2-methoxyethyl)-1H-benzo[d]imidazole-carboxylic acid], the “Predicted Hepatic Clearance (Pred. Cl.)” value in series [1] is 7.83 mL/min/kg.

Regarding `COCCn1c(Cc2ccc(-c3nnc(OCc4ccc(C#N)cc4F)s3)cc2F)nc2ccc(C(=O)O)cc21` [Example 213, 2-(4-(5-((4-cyano-2-fluorobenzyl)oxy)-1,3,4-thiadiazol-2-yl)-2-fluorobenzyl)-1-(2-methoxyethyl)-1H-benzo[d]imidazole-carboxylic acid], the “Predicted Hepatic Clearance (Pred. Cl.)” value in series [1] is 9.17 mL/min/kg.

With `COCCn1c(Cc2ccc(-c3cccc(OCc4ccc(C#N)cc4F)n3)c(NC(C)=O)c2)nc2ccc(C(=O)O)cc21` [Example 253, 2-(3-acetamido-4-(6-((4-cyano-2-fluorobenzyl)oxy)pyridin-2-yl)benzyl)-1-(2-methoxyethyl)-1H-benzo[d]imidazole-6-carboxylic acid], the “Predicted Hepatic Clearance (Pred. Cl.)” value in series [1] was 14 mL/min/kg.

As for `COCCn1c(Cn2cc(-c3cccc(OCc4ccc(C#N)cc4F)n3)cn2)nc2ccc(C(=O)O)cc21` [Example 282, 2-((4-(6-((4-cyano-2-fluorobenzyl)oxy)pyridin-2-yl)-1H-pyrazol-1-yl)methyl)-1-(2-methoxyethyl)-1H-benzo[d]imidazole-6-carboxylic acid], the “Predicted Hepatic Clearance (Pred. Cl.)” value in series [1] was 8.17 mL/min/kg.

With `COCCn1c(Cc2ccc(-c3cccc(OCc4ccc5cn[nH]c5c4)n3)cc2F)nc2ccc(C(=O)O)cc21` [Example 463, 2-(4-(6-((1H-indazol-6-yl)methoxy)pyridin-2-yl)-2-fluorobenzyl)-1-(2-methoxyethyl)-1H-benzo[d]imidazole-6-carboxylic acid], the “Predicted Hepatic Clearance (Pred. Cl.)” value in series [1] is 2.33 mL/min/kg.

Consider `CC(=O)N1CCC[C@H]1Cn1c(Cc2ccc(-c3ccc(F)c(OCc4ccc(Cl)cc4F)c3)cc2F)nc2ccc(C(=O)O)cc21` [Example 464, (S)-1-((1-acetylpyrrolidin-2-yl)methyl)-2-((3′-((4-chloro-2-fluorobenzyl)oxy)-3,4′-difluoro-[1,1′-biphenyl]-4-yl)methyl)-1H-benzo[d]imidazole-6-carboxylic acid], for which the “Predicted Hepatic Clearance (Pred. Cl.)” value in series [1] was 4 mL/min/kg.

As for `COCCn1c(Cc2ccc(-c3cccc(OCc4cccc5cc[nH]c45)n3)cc2F)nc2ccc(C(=O)O)cc21` [Example 479, 2-(4-(6-((1H-indol-7-yl)methoxy)pyridin-2-yl)-2-fluorobenzyl)-1-(2-methoxyethyl)-1H-benzo[d]imidazole-6-carboxylic acid], the “Predicted Hepatic Clearance (Pred. Cl.)” value in series [1] was 9.33 mL/min/kg.

As to `CC(=O)N1CCC[C@H]1Cn1c(Cc2ccc(-c3ccc(F)c(OCc4ccc(Cl)cc4F)c3)cc2F)nc2ccc(C(=O)O)cc21` [Example 482, 3-[[(2S)-1-acetylpyrrolidin-2-yl]methyl]-2-[[4-[3-[(4-chloro-2-fluoro-phenyl)methoxy]-4-fluoro-phenyl]-2-fluoro-phenyl]methyl]benzimidazole-5-carboxylic acid], the “Predicted Hepatic Clearance (Pred. Cl.)” value in series [1] is 4.83 mL/min/kg.

As to `COCCn1c(Cc2ccc(-c3cccc(OCc4ccccc4N)n3)cc2F)nc2ccc(C(=O)O)cc21` [Example 498, 2-(4-(6-((2-aminobenzyl)oxy)pyridin-2-yl)-2-fluorobenzyl)-1-(2-methoxyethyl)-1H-benzo[d]imidazole-6-carboxylic acid], the “Predicted Hepatic Clearance (Pred. Cl.)” value in series [1] is less than 1.83 mL/min/kg.

`COCCn1c(Cc2ccc(-c3cccc(OCn4ccc(C(=O)O)cc4=O)n3)cc2F)nc2ccc(C(=O)O)cc21` [Example 503, 2-(4-(6-((4-carboxy-2-oxopyridin-1(2H)-yl)methoxy)pyridin-2-yl)-2-fluorobenzyl)-1-(2-methoxyethyl)-1H-benzo[d]imidazole-6-carboxylic acid]: the “Predicted Hepatic Clearance (Pred. Cl.)” value in series [1] is less than 1.83 mL/min/kg.

Take `COCCn1c(Cc2ccc(-c3cccc(OCc4ccccc4S(C)(=O)=O)n3)cc2F)nc2ccc(C(=O)O)cc21` [Example 510, 2-(2-fluoro-4-(6-((2-(methylsulfonyl)benzyl)oxy)pyridin-2-yl)benzyl)-1-(2-methoxyethyl)-1H-benzo[d]imidazole-6-carboxylic acid]: the “Predicted Hepatic Clearance (Pred. Cl.)” value in series [1] was 14.5 mL/min/kg.

For `CCOP(=O)(OCC)c1ccc2nc(Cc3ccc(-c4cccc(OCc5ccc(C#N)cc5F)n4)cc3F)n(CCOC)c2c1` [Example 556, Diethyl (2-(4-(6-((4-cyano-2-fluorobenzyl)oxy)pyridin-2-yl)-2-fluorobenzyl)-1-(2-methoxyethyl)-1H-benzo[d]imidazol-6-yl)phosphonate], in series [1], the “Predicted Hepatic Clearance (Pred. Cl.)” value is 19.5 mL/min/kg.

For the molecule `COCCn1c(Cc2ccc(-c3cccc(OCc4ccc(C(F)(F)F)nc4N)n3)cc2F)nc2ccc(C(=O)O)cc21` [Example 595, 2-(4-(6-((2-amino-6-(trifluoromethyl)pyridin-3-yl)methoxy)pyridin-2-yl)-2-fluorobenzyl)-1-(2-methoxyethyl)-1H-benzo[d]imidazole-6-carboxylic acid], the “Predicted Hepatic Clearance (Pred. Cl.)” value in series [1] is 6.17 mL/min/kg.

Consider `COCCn1c(Cc2cc(F)c(-c3ccc(F)c(OCc4cc(F)c(C#N)cc4F)n3)cc2F)nc2c(F)cc(C(=O)O)cc21` [Example 763], for which the “Predicted Hepatic Clearance (Pred. Cl.)” value in series [1] is 1.83 mL/min/kg.
